Test results taken from PMC8225008, “Development of Non-Ethoxypropanoic Acid Type Cryptochrome Inhibitors with Circadian Molecular Clock-Enhancing Activity by Bioisosteric Replacement” (Pharmaceuticals, 2021).
pIC50: −log10 of the molar value.

Biological target: T1, CYP1A2 (Homo sapiens, UniProt P05177)
T1 construct: pooled human liver microsomes (HLMs, XTreme 200, XenoTech, Lenexa, KS, USA); tissue XenoTech XTreme 200; host or cells: pooled human liver microsomes
T1 sequence (P05177 1-516): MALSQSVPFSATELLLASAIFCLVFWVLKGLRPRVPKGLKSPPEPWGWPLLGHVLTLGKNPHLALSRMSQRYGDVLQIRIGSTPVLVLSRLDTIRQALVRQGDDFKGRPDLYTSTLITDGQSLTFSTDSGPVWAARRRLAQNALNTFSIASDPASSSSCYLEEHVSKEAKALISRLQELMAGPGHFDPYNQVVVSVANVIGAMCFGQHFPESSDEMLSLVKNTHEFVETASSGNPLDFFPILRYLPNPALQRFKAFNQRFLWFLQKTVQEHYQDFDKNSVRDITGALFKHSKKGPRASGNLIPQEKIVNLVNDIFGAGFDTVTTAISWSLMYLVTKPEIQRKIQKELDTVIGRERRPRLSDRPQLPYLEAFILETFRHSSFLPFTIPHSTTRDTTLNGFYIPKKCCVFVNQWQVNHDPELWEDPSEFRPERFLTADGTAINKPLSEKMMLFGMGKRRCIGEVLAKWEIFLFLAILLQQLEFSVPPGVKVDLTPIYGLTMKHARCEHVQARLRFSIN
Assay: Cytochrome P450 inhibition assay (cocktail method, human liver microsomes), phenacetin O-deethylation
Format: in vitro ADME
Protocol: The inhibitory effects of KS15 and compound 5d on the metabolism of five cytochrome P450 (P450) probe substrates were evaluated using previous methods with slight modifications. The following P450 probe substrates were used: phenacetin (100 μM) for CYP1A2, tolbutamide (100 μM) for CYP2C9, omeprazole (20 μM) for CYP2C19, dextromethorphan (5 μM) for CYP2D6, and midazolam (5 μM) for CYP3A. Incubation mixtures containing pooled human liver microsomes (HLMs, XTreme 200, XenoTech, Lenexa, KS, USA), P450 probe substrates, and KS15 or compound 5d (final concentrations: 0, 0.5, 2, 5, 20, and 50 μM) were preincubated for 5 min at 37 °C. […] After centrifugation at 18,000× g (5 min, 4 °C), supernatant aliquots were analyzed by liquid chromatography-tandem mass spectrometry (LC-MS/MS). […]
All metabolites and IS were separated on a Kinetex C18 column (100 mm × 2.1 mm, 2.6 μm ID., Phenomenex, Torrance, CA, USA) and analyzed using an LC-MS/MS system (LCMS 8060, Shimadzu, Tokyo, Japan) equipped with an electrospray ionization (ESI) interface. […]
The EC50 values for luciferase reporter assay were calculated based on a logistic four-parametric equation using the mean values of intrinsic activation (SigmaPlot 10.0; Systat Software Inc., San Jose, CA, USA). […] Pharmacokinetic parameters were calculated using non-compartmental analysis (WinNonlin v.8.3; Pharsight, Mountain View, CA, USA). […]

pIC50: < 4.30
Compound: COC(=O)COc1cccc(C(C)=NOCc2ccc([N+](=O)[O-])cc2)c1 [Compound 5d, Methyl 2-(3-(1-(((4-nitrobenzyl)oxy)imino)ethyl)phenoxy)acetate]
